From US7151105B2, “Inhibitors of Hepatitis C virus RNA-dependent RNA polymerase, and compositions and treatments using the same” (Agouron Pharmaceuticals, Inc., priority 2004, dated 2006) come the findings set out here.

What is called IC50 is the concentration needed to halve the response being measured.

In the test the target is T1, Recombinant HCV polymerase (Hepatitis C virus genotype 1b, UniProt P26663).
T1 construct: Recombinant HCV polymerase was tested for its ability to perform primer/template-directed transcription
T1 sequence (P26663 2420-3010): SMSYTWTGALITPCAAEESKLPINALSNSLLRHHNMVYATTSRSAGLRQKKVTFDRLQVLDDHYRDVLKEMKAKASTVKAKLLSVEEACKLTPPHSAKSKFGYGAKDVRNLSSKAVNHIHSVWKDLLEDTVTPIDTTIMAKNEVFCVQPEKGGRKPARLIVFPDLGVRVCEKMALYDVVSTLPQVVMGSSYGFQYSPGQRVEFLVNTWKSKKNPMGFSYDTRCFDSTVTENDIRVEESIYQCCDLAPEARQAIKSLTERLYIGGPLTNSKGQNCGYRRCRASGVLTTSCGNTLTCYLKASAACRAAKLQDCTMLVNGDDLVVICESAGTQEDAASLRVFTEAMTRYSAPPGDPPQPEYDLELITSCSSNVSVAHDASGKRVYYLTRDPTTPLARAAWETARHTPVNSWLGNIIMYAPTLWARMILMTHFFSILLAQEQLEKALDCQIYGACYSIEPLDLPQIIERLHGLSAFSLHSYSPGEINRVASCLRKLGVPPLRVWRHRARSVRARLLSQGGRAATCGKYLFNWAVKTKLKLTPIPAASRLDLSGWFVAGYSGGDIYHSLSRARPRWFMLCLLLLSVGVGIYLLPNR
The experiment in a line: biochemical. To be noted: inhibition of polymerase-directed transcription; 30 min at 30° C; 30 nM enzyme; cpm data in triplicate. Summed up:
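Primer/template-directed RNA synthesis by 2.5 pmol HCV polymerase on poly(rC)300/biotin-dG12 with 1 μM GTP plus α-32P-GTP, in pH 7.2 Tris buffer with 10 mM MgCl2, for 30 min at 30 °C. Products were filter-captured and counted, with 1% DMSO final. IC50 was fitted from triplicate cpm; percent inhibition was reported where IC50 was impractical.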
`Cc1cc(C)n2nc(CC3=C(O)CC(CCc4cc(CC(F)(F)F)nc(CC(F)(F)F)c4)(C4CCCC4)OC3=O)nc2n1` (stereo not drawn) [A(9), 6-{2-[2,6-Bis(2,2,2-trifluoroethyl)pyridin-4-yl]ethyl}-6-cyclopentyl-3-[(5,7-dimethyl[1,2,4]triazolo[1,5-a]pyrimidin-2-yl)methyl]-4-hydroxy-5,6-dihydro-2H-pyran-2-one]: the 50% inhibitory concentration (IC50) came out at 5 nM.
The result for `Cc1cc(C)n2nc(CC3=C(O)CC(CCc4ccc([C@@H](C)NC(=O)OC(C)(C)C)cc4)(C4CCCC4)OC3=O)nc2n1` (stereo partly drawn) [A(91), tert-Butyl(1R)-1-[4-(2-{2-cyclopentyl-5-[(5,7-dimethyl[1,2,4]triazolo[1,5-a]pyrimidin-2-yl)methyl]-4-hydroxy-6-oxo-3,6-dihydro-2H-pyran-2-yl}ethyl)phenyl]ethylcarbamate] reads 160 nM; that for `CC(C)(C#N)c1ncc(CCC2(C3CCCC3)CC(=O)CC(=O)O2)cc1Cl` (stereo not drawn) [B(29), 2-{3-Chloro-5-[2-(2-cyclopentyl-4,6-dioxotetrahydro-2H-pyran-2-yl)ethyl]pyridin-2-yl}-2-methylpropanenitrile], 5200 nM; that for `CCc1cc(CCC2(C3CCCC3)CC(O)=C(Cc3nc4nc(C)cc(C)n4n3)C(=O)O2)ccc1CN(C)C` (racemic) [A(119), 6-cyclopentyl-6-(2-{4-[(dimethylamino)methyl]-3-ethylphenyl}ethyl)-3-[(5,7-dimethyl[1,2,4]triazolo[1,5-a]pyrimidin-2-yl)methyl]-4-hydroxy-5,6-dihydro-2H-pyran-2-one], 10 nM.
On to `CCOc1cc(O)c(CC)cc1CCC1(C2CCCC2)CC(O)=C(Cc2nc3nc(C)cc(C)n3n2)C(=O)O1` (stereo not drawn) [A(22), 6-Cyclopentyl-3-[(5,7-dimethyl[1,2,4]triazolo[1,5-a]pyrimidin-2-yl)methyl]-6-[2-(2-ethoxy-5-ethyl-4-hydroxyphenyl)ethyl]-4-hydroxy-5,6-dihydro-2H-pyran-2-one], for which the IC50 was found to be 4 nM.
The result for `CCOc1cnc(CC)cc1CCC1(C2CCCC2)CC(O)=C(Cc2nc3ncc(C)cn3n2)C(=O)O1` (single isomer, unassigned) [A(56), 6-Cyclopentyl-6-[2-(5-ethoxy-2-ethylpyridin-4-yl)ethyl]-4-hydroxy-3-[(6-methyl[1,2,4]triazolo[1,5-a]pyrimidin-2-yl)methyl]-5,6-dihydro-2H-pyran-2-one] reads 4 nM; that for `CCCOc1cnc(CC)cc1CCC1(C2CCCC2)CC(O)=C(Cc2nc3nc(C)cc(C)n3n2)C(=O)O1` (single isomer, unassigned) [A(54), 6-Cyclopentyl-3-[(5,7-dimethyl[1,2,4]triazolo[1,5-a]pyrimidin-2-yl)methyl]-6-[2-(2-ethyl-5-propoxypyridin-4-yl)ethyl]-4-hydroxy-5,6-dihydro-2H-pyran-2-one], 3 nM; that for `CCC(C#N)(CC)c1ccc(CCC2(C3CCCC3)CC(O)=C(Cc3nc4nc(C)cc(C)n4n3)C(=O)O2)cc1C(F)(F)F` (single isomer, unassigned) [A(154), 2-[4-(2-{2-Cyclopentyl-5-[(5,7-dimethyl[1,2,4]triazolo[1,5-a]pyrimidin-2-yl)methyl]-4-hydroxy-6-oxo-3,6-dihydro-2H-pyran-2-yl}ethyl)-2-(trifluoromethyl)phenyl]-2-ethylbutanenitrile], 11 nM.
The result for `COc1ccc(CCC2(C3CCCC3)CC(O)=C(Cc3nc4nc(C)cc(C)n4n3)C(=O)O2)cc1C(F)(F)F` (stereo not drawn) [A(23), 6-Cyclopentyl-3-[(5,7-dimethyl[1,2,4]triazolo[1,5-a]pyrimidin-2-yl)methyl]-4-hydroxy-6-{2-[4-methoxy-3-(trifluoromethyl)phenyl]ethyl}-5,6-dihydro-2H-pyran-2-one] reads 6 nM; that for `CCCOc1cnc(CC)cc1CCC1(C2CCCC2)CC(O)=C(Cc2nc3nc(C)cc(C)n3n2)C(=O)O1` (single isomer, unassigned) [A(53), 6-Cyclopentyl-3-[(5,7-dimethyl[1,2,4]triazolo[1,5-a]pyrimidin-2-yl)methyl]-6-[2-(2-ethyl-5-propoxypyridin-4-yl)ethyl]-4-hydroxy-5,6-dihydro-2H-pyran-2-one], 3 nM; that for `CS(=O)(=O)c1ccc(CCC2(C3CCCC3)CC(=O)CC(=O)O2)cc1F` (stereo not drawn) [A(63), 6-Cyclopentyl-6-{2-[3-fluoro-4-(methylsulfonyl)phenyl]ethyl}dihydro-2H-pyran-2,4(3H)-dione], 18500 nM.
Consider `CCCOc1cc(O)c(CCC2(C3CCCC3)CC(O)=C(Cc3nc4ncc(C)cn4n3)C(=O)O2)cc1CC` (stereo not drawn) [A(50), 6-Cyclopentyl-6-[2-(5-ethyl-2-hydroxy-4-propoxyphenyl)ethyl]-4-hydroxy-3-[(6-methyl[1,2,4]triazolo[1,5-a]pyrimidin-2-yl)methyl]-5,6-dihydro-2H-pyran-2-one], for which the half-maximal inhibitory concentration (IC50) worked out at 4 nM.
On to `CCc1cc(CCC2(C3CCCC3)CC(O)=C(Cc3nc4nc(C)cc(C)n4n3)C(=O)O2)ccc1CO` (single isomer, unassigned; enantiomer 1) [A(114), Enantiomer 1 of 6-cyclopentyl-3-[(5,7-dimethyl[1,2,4]triazolo[1,5-a]pyrimidin-2-yl)methyl]-6-{2-[3-ethyl-4-(hydroxymethyl)phenyl]ethyl}4-hydroxy-5,6dihydro-2H-pyran-2-one], for which the IC50 is 5 nM.
Turning to `CCc1nn2c(=O)cc(CC3=C(O)CC(CCc4ccc(C(C)(C)C#N)c(F)c4)(C4CCCC4)OC3=O)nc2s1` (stereo not drawn) [B(20), 2-[4-(2-{2-Cyclopentyl-5-[(2-ethyl-5-oxo-5H-[1,3,4]thiadiazolo[3,2-a]pyrimidin-7-yl)methyl]-4-hydroxy-6-oxo-3,6-dihydro-2H-pyran-2-yl}ethyl)-2-fluorophenyl]-2-methylpropanenitrile], the half-maximal inhibitory concentration (IC50) was 5 nM.
The result for `CCOc1cc(O)c(CC)cc1CCC1(C2CCCC2)CC(O)=C(Cc2nc3ncc(C)cn3n2)C(=O)O1` (single isomer, unassigned) [A(57), 6-Cyclopentyl-6-[2-(2-ethoxy-5-ethyl-4-hydroxyphenyl)ethyl]-4-hydroxy-3-[(6-methyl[1,2,4]triazolo[1,5-a]pyrimidin-2-yl)methyl]-5,6-dihydro-2H-pyran-2-one] reads 3 nM; that for `CCCOc1cc(O)c(CC(F)(F)F)cc1CCC1(C2CCCC2)CC(O)=C(Cc2nc3nc(C)cc(C)n3n2)C(=O)O1` (stereo not drawn) [A(77), 6-Cyclopentyl-3-[(5,7-dimethyl[1,2,4]triazolo[1,5-a]pyrimidin-2-yl)methyl]-4-hydroxy-6-{2-[4-hydroxy-2-propoxy-5-(2,2,2-trifluoroethyl)phenyl]ethyl}-5,6-dihydro-2H-pyran-2-one], 5 nM; that for `CCc1cc(CCC2(C3CCCC3)CC(O)=C(Cc3nc4nc(C)cc(C)n4n3)C(=O)O2)c(OC)cc1OC` (stereo not drawn) [A(24), 6-Cyclopentyl-3-[(5,7-dimethyl[1,2,4]triazolo[1,5-a]pyrimidin-2-yl)methyl]-6-[2-(5-ethyl-2,4-dimethoxyphenyl)ethyl]-4-hydroxy-5,6-dihydro-2H-pyran-2-one], 14 nM.
The result for `CCc1cc(CCC2(C3CCCC3)CC(O)=C(Cc3nc4nc(C)cc(C)n4n3)C(=O)O2)ccc1CN1CCOCC1` (racemic) [A(123), 6-cyclopentyl-3-[(5,7-dimethyl[1,2,4]triazolo[1,5-a]pyrimidin-2-yl)methyl]-6-{2-[3-ethyl-4-(morpholin-4-ylmethyl)phenyl]ethyl}-4-hydroxy-5,6-dihydro-2H-pyran-2-one] reads 39 nM; that for `CCc1cc(CCC2(C3CCCC3)CC(O)=C(Cc3nc4nc(C)cc(C)n4n3)C(=O)O2)ccc1CN1CCOCC1` (single isomer, unassigned) [A(157), 6-Cyclopentyl-3-[(5,7-dimethyl[1,2,4]triazolo[1,5-a]pyrimidin-2-yl)methyl]-{2-[3-ethyl-4-(morpholin-4-ylmethyl)phenyl]ethyl}-4-hydroxy-5,6-dihydro-2H-pyran-2-one], 10 nM; that for `CCc1cncc(CCC2(C3CCCC3)CC(O)=C(Cc3nc4nc(C)cc(C)n4n3)C(=O)O2)c1` (stereo not drawn) [A(14), 6-Cyclopentyl-3-[(5,7-dimethyl[1,2,4]triazolo[1,5-a]pyrimidin-2-yl)methyl]-6-[2-(5-ethylpyridin-3-yl)ethyl]-4-hydroxy-5,6dihydro-2H-pyran-2-one], 8 nM.
The result for `CCn1cc(CC2=C(O)CC(CCc3ccc(C(C)(C)C#N)c(Cl)c3)(C3CCCC3)OC2=O)cn1` (stereo not drawn) [B(23), 2-[2-Chloro-4-(2-{2-cyclopentyl-5-[(1-ethyl-1H-pyrazol-4-yl)methyl]-4-hydroxy-6-oxo-3,6-dihydro-2H-pyran-2-yl}ethyl)phenyl]-2-methylpropanenitrile] reads 140 nM; that for `CCc1cc(CCC2(C3CCCC3)CC(O)=C(Cc3nc4nc(C)cc(C)n4n3)C(=O)O2)ccc1Cn1cccn1` (stereo not drawn) [A(112), 6-Cyclopentyl-3-[(5,7-dimethyl[1,2,4]triazolo[1,5-a]pyrimidin-2-yl)methyl]-6-{2-[3-ethyl-4-(1H-pyrazol-1-ylmethyl)phenyl]ethyl}-4-hydroxy-5,6-dihydro-2H-pyran-2-one], 7 nM; that for `CCc1cc(CCC2(C3CCCC3)CC(O)=C(Cc3nc4nc(C)cc(C)n4n3)C(=O)O2)ccc1CC#N` (stereo not drawn) [A(101), [4-(2-{2-Cyclopentyl-5-[(5,7-dimethyl[1,2,4]triazolo[1,5-a]pyrimidin-2-yl)methyl]-4-hydroxy-6-oxo-3,6-dihydro-2H-pyran-2-yl}ethyl)-2-ethylphenyl]acetonitrile], 8 nM.
On to `Cc1cc(C)n2nc(CC3=C(O)CC(CCc4ccc(C(C)(C)O)c(Cl)c4)(C4CCCC4)OC3=O)nc2n1` (stereo not drawn) [B(37), 6-{2-[3-Chloro-4-(1-hydroxy-1-methylethyl)phenyl]ethyl}-6-cyclopentyl-3[(5,7-dimethyl[1,2,4]triazolo[1,5-a]pyrimidin-2-yl)methyl]-4-hydroxy-5,6-dihydro-2H-pyran-2-one], for which the IC50 came to 22 nM.
